Measured values from ChEMBL document CHEMBL4699602, “Stapled and Xenopus Glucagon-Like Peptide 1 (GLP-1)-Based Dual GLP-1/Gastrin Receptor Agonists with Improved Metabolic Benefits in Rodent Models of Obesity and Diabetes” (J Med Chem, 2020).
The source made the active and inactive calls. The rule behind the calls is not given here. *1 amine or outer side, *2 acyl side, *3 side chain or, on linkers, in order; H or OH if unused. Where a SMILES comes first, the peptide text is derived from it. Bridges are numbered along the chain shown (N, C = ends). [ ]: non-standard residue; d: D form. X4 = O=C(O)CCCCCCCCCCCCCCCCC(=O)NC(CCC(=O)NCCOCCOCC(=O)NCCOCCOCC(=O)NCCCCCCNC(=O)C(CCCCNC(=O)CCN1C(=O)CC([*:1])C1=O)NC(=O)CCN1C(=O)CC([*:2])C1=O)C(=O)O; X7 = O=C(O)CCCCCCCCCCCCCCCCC(=O)NCCOCCOCC(=O)NCCCCCCNC(=O)C(CCCCNC(=O)CCN1C(=O)CC([*:1])C1=O)NC(=O)CCN1C(=O)CC([*:2])C1=O; X1 = CCCCCCCCCCCCCCCC(=O)NCCCCCCNC(=O)C(CCCCNC(=O)CCN1C(=O)CC([*:1])C1=O)NC(=O)CCN1C(=O)CC([*:2])C1=O; Aib = CC(C)(N)C(=O)O

Legend:
[1] = biological target: T1, Glucagon-like peptide 1 receptor (Homo sapiens, UniProt P43220); experiment: Agonist activity at human GLP-1R expressed in HEK293 cells assessed as stimulation of cAMP accumulation incubated for 20 mins in presence of 0% HSA; type: functional, cell-based
T1 sequence (P43220 whole entry): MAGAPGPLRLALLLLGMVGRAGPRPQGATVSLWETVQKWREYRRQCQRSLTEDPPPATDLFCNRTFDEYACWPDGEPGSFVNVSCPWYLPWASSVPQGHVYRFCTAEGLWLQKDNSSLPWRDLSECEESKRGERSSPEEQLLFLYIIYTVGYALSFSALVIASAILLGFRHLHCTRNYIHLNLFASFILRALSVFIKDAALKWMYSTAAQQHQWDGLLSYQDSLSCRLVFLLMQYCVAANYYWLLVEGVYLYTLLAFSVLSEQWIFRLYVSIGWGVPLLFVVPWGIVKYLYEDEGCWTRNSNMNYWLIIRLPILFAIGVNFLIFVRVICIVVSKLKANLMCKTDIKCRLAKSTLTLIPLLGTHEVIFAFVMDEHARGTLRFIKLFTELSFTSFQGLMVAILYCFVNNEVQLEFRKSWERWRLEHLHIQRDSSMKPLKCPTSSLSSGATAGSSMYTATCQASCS

[2] = biological target: T1, Glucagon-like peptide 1 receptor; experiment: Agonist activity at human GLP-1R expressed in HEK293 cells assessed as stimulation of cAMP accumulation incubated for 20 mins in presence of 4.4% HSA; type: functional, cell-based
[3] = biological target: T1, Glucagon-like peptide 1 receptor; experiment: Ratio of EC50 for agonist activity at human GLP-1R expressed in HEK293 cells in presence of 4.4% HSA to EC50 for agonist activity at human GLP-1R expressed in HEK293 cells in presence of 0% HSA; type: cell-based
Mus musculus = experiment: Hypoglycemic activity in ICR mouse assessed as decrease in blood glucose concentration at 25 nmol/kg, ip dosed 15 mins before test and measured up to 120 mins by OGTT method; type: functional, organism-based

EC50 [1] [nM]	EC50 [2] [nM]	Ratio EC50 [3]	Molecule	Activity (Mus musculus)
0.19	2.6	13.7	CC[C@H](C)[C@@H]1NC(=O)[C@H](CC(C)C)NC(=O)[C@H](Cc2c[nH]c3ccccc23)NC(=O)[C@H](CCC(=O)O)NC(=O)[C@H]([C@@H](C)CC)NC(=O)[C@H](Cc2ccccc2)NC(=O)[C@@H](NC(=O)[C@H](CCCCN)NC(=O)[C@H](C)NC(=O)[C@H](C)NC(=O)[C@H](CCC(=O)O)NC(=O)[C@H](CCC(=O)O)NC(=O)[C@H](CCC(=O)O)NC(=O)[C@H](CC(C)C)NC(=O)[C@H](Cc2ccc(O)cc2)NC(=O)[C@H](CCC(=O)O)NC(=O)[C@@H](NC(=O)[C@@H](NC(=O)[C@H](CC(=O)O)NC(=O)[C@H](CC(N)=O)NC(=O)[C@@H](NC(=O)[C@H](Cc2ccc(O)cc2)NC(=O)[C@@H](NC(=O)CNC(=O)[C@H](CCC(=O)O)NC(=O)C(C)(C)NC(=O)[C@@H](N)Cc2c[nH]cn2)[C@@H](C)O)[C@@H](C)O)C(C)C)[C@@H](C)O)CSC2CC(=O)N(CCC(=O)NC(C(=O)NCCCCCCNC(=O)COCCOCCNC(=O)CCCCCCCCCCCCCCCCC(=O)O)CCCCNC(=O)CCN3C(=O)CC(SC[C@@H](C(=O)NCC(=O)N[C@@H](CCCCN)C(N)=O)NC1=O)C3=O)C2=O (stereo not given in full) (HELM PEPTIDE1{H.[Aib].E.G.T.Y.T.N.D.V.T.E.Y.L.E.E.E.A.A.K.C.F.I.E.W.L.I.C.G.K.[am]}|CHEM1{[O=C(O)CCCCCCCCCCCCCCCCC(=O)NCCOCCOCC(=O)NCCCCCCNC(=O)C(CCCCNC(=O)CCN1C(=O)CC([*:2])C1=O)NC(=O)CCN1C(=O)CC([*:1])C1=O]}$PEPTIDE1,CHEM1,21:R3-1:R1|PEPTIDE1,CHEM1,28:R3-1:R2$$$V2.0)	–
0.098	1.8	18.4	CCCCCCCCCCCCCCCC(=O)NCCCCCCNC(=O)C1CCCCNC(=O)CCN2C(=O)CC(SC[C@H](NC(=O)[C@H](Cc3ccc(O)cc3)NC(=O)[C@H](CCC(=O)O)NC(=O)[C@@H](NC(=O)[C@@H](NC(=O)[C@H](CC(=O)O)NC(=O)[C@H](CC(N)=O)NC(=O)[C@@H](NC(=O)[C@H](Cc3ccc(O)cc3)NC(=O)[C@@H](NC(=O)CNC(=O)[C@H](CCC(=O)O)NC(=O)C(C)(C)NC(=O)[C@@H](N)Cc3c[nH]cn3)[C@@H](C)O)[C@@H](C)O)C(C)C)[C@@H](C)O)C(=O)N[C@@H](CCC(=O)O)C(=O)N[C@@H](CCC(=O)O)C(=O)N[C@@H](CCC(=O)O)C(=O)N[C@@H](C)C(=O)N[C@@H](C)C(=O)N[C@@H](CCCCN)C(=O)N[C@H](C(=O)N[C@@H](Cc3ccccc3)C(=O)N[C@H](C(=O)N[C@@H](CCC(=O)O)C(=O)N[C@@H](Cc3c[nH]c4ccccc34)C(=O)N[C@@H](CC(C)C)C(=O)N[C@H](C(=O)N[C@@H](CCCCN)C(=O)NCC(=O)N[C@@H](CCCCN)C(N)=O)[C@@H](C)CC)[C@@H](C)CC)CSC3CC(=O)N(CCC(=O)N1)C3=O)C2=O (stereo not given in full) (HELM PEPTIDE1{H.[Aib].E.G.T.Y.T.N.D.V.T.E.Y.C.E.E.E.A.A.K.C.F.I.E.W.L.I.K.G.K.[am]}|CHEM1{[CCCCCCCCCCCCCCCC(=O)NCCCCCCNC(=O)C(CCCCNC(=O)CCN1C(=O)CC([*:1])C1=O)NC(=O)CCN1C(=O)CC([*:2])C1=O]}$PEPTIDE1,CHEM1,14:R3-1:R1|PEPTIDE1,CHEM1,21:R3-1:R2$$$V2.0)	–
0.1	1.4	14	H-H[Aib]EGTYTNDVTEYCEEEAAKCFIEWLIKGKPSSGAPPSKKKKKK-NH2 (linker 14-21 via X7)	–
0.15	12.7	84.7	H-H[Aib]EGTYTNDVTEYCEEEAAKCFIEWLIKGKPSSGAPPSKKKKKK-NH2 (linker 14-21 via X4)	–

The next lines start with the molecule.

Molecule	EC50 [1] [nM]	EC50 [2] [nM]	Ratio EC50 [3]	Activity (Mus musculus)
CC[C@H](C)[C@@H]1NC(=O)[C@H](CC(C)C)NC(=O)[C@H](Cc2c[nH]c3ccccc23)NC(=O)[C@H](CCC(=O)O)NC(=O)[C@H]([C@@H](C)CC)NC(=O)[C@H](Cc2ccccc2)NC(=O)[C@@H](NC(=O)[C@H](CCCCN)NC(=O)[C@H](C)NC(=O)[C@H](C)NC(=O)[C@H](CCC(=O)O)NC(=O)[C@H](CCC(=O)O)NC(=O)[C@H](CCC(=O)O)NC(=O)[C@H](CC(C)C)NC(=O)[C@H](Cc2ccc(O)cc2)NC(=O)[C@H](CCC(=O)O)NC(=O)[C@@H](NC(=O)[C@@H](NC(=O)[C@H](CC(=O)O)NC(=O)[C@H](CC(N)=O)NC(=O)[C@@H](NC(=O)[C@H](Cc2ccc(O)cc2)NC(=O)[C@@H](NC(=O)CNC(=O)[C@H](CCC(=O)O)NC(=O)C(C)(C)NC(=O)[C@@H](N)Cc2c[nH]cn2)[C@@H](C)O)[C@@H](C)O)C(C)C)[C@@H](C)O)CSC2CC(=O)N(CCC(=O)NCCCCC(C(=O)NCCCCCCNC(=O)COCCOCCNC(=O)COCCOCCNC(=O)CCC(NC(=O)CCCCCCCCCCCCCCCCC(=O)O)C(=O)O)NC(=O)CCN3C(=O)CC(SC[C@@H](C(=O)NCC(=O)N[C@@H](CCCCN)C(=O)N4CCC[C@H]4C(=O)N[C@@H](CO)C(=O)N[C@@H](CO)C(=O)NCC(=O)N[C@@H](C)C(=O)N4CCC[C@H]4C(=O)N4CCC[C@H]4C(=O)N4CCC[C@H]4C(=O)N[C@@H](CO)C(N)=O)NC1=O)C3=O)C2=O (stereo not given in full) (HELM PEPTIDE1{H.[Aib].E.G.T.Y.T.N.D.V.T.E.Y.L.E.E.E.A.A.K.C.F.I.E.W.L.I.C.G.K.P.S.S.G.A.P.P.P.S.[am]}|CHEM1{[O=C(O)CCCCCCCCCCCCCCCCC(=O)NC(CCC(=O)NCCOCCOCC(=O)NCCOCCOCC(=O)NCCCCCCNC(=O)C(CCCCNC(=O)CCN1C(=O)CC([*:1])C1=O)NC(=O)CCN1C(=O)CC([*:2])C1=O)C(=O)O]}$PEPTIDE1,CHEM1,21:R3-1:R1|PEPTIDE1,CHEM1,28:R3-1:R2$$$V2.0)	0.17	16.5	97.1	–
CC[C@H](C)[C@H](NC(=O)[C@H](CC(C)C)NC(=O)[C@H](Cc1c[nH]c2ccccc12)NC(=O)[C@H](CCC(=O)O)NC(=O)[C@@H](NC(=O)[C@H](Cc1ccccc1)NC(=O)[C@@H]1CSC2CC(=O)N(CCC(=O)NC(C(=O)NCCCCCCNC(=O)COCCOCCNC(=O)COCCOCCNC(=O)CCC(NC(=O)CCCCCCCCCCCCCCCCC(=O)O)C(=O)O)CCCCNC(=O)CCN3C(=O)CC(SC[C@H](NC(=O)[C@H](Cc4ccc(O)cc4)NC(=O)[C@H](CCC(=O)O)NC(=O)[C@@H](NC(=O)[C@@H](NC(=O)[C@H](CC(=O)O)NC(=O)[C@H](CC(N)=O)NC(=O)[C@@H](NC(=O)[C@H](Cc4ccc(O)cc4)NC(=O)[C@@H](NC(=O)CNC(=O)[C@H](CCC(=O)O)NC(=O)C(C)(C)NC(=O)[C@@H](N)Cc4c[nH]cn4)[C@@H](C)O)[C@@H](C)O)C(C)C)[C@@H](C)O)C(=O)N[C@@H](CCC(=O)O)C(=O)N[C@@H](CCC(=O)O)C(=O)N[C@@H](CCC(=O)O)C(=O)N[C@@H](C)C(=O)N[C@@H](C)C(=O)N[C@@H](CCCCN)C(=O)N1)C3=O)C2=O)[C@@H](C)CC)C(=O)N[C@@H](CCCCN)C(=O)NCC(=O)N[C@@H](CCCCN)C(N)=O (stereo not given in full) (HELM PEPTIDE1{H.[Aib].E.G.T.Y.T.N.D.V.T.E.Y.C.E.E.E.A.A.K.C.F.I.E.W.L.I.K.G.K.[am]}|CHEM1{[O=C(O)CCCCCCCCCCCCCCCCC(=O)NC(CCC(=O)NCCOCCOCC(=O)NCCOCCOCC(=O)NCCCCCCNC(=O)C(CCCCNC(=O)CCN1C(=O)CC([*:1])C1=O)NC(=O)CCN1C(=O)CC([*:2])C1=O)C(=O)O]}$PEPTIDE1,CHEM1,14:R3-1:R1|PEPTIDE1,CHEM1,21:R3-1:R2$$$V2.0)	0.16	14.5	90.6	–
H-H[Aib]EGTYTNDVTEYCEEEAAKCFIEWLIKGKPSSGAPPSKKKKKK-NH2 (linker 14-21 via X1)	0.093	1.4	15.1	–
CC[C@H](C)[C@@H]1NC(=O)[C@H](CC(C)C)NC(=O)[C@H](Cc2c[nH]c3ccccc23)NC(=O)[C@H](CCC(=O)O)NC(=O)[C@H]([C@@H](C)CC)NC(=O)[C@H](Cc2ccccc2)NC(=O)[C@@H](NC(=O)[C@H](CCCCN)NC(=O)[C@H](C)NC(=O)[C@H](C)NC(=O)[C@H](CCC(=O)O)NC(=O)[C@H](CCC(=O)O)NC(=O)[C@H](CCC(=O)O)NC(=O)[C@H](CC(C)C)NC(=O)[C@H](Cc2ccc(O)cc2)NC(=O)[C@H](CCC(=O)O)NC(=O)[C@@H](NC(=O)[C@@H](NC(=O)[C@H](CC(=O)O)NC(=O)[C@H](CC(N)=O)NC(=O)[C@@H](NC(=O)[C@H](Cc2ccc(O)cc2)NC(=O)[C@@H](NC(=O)CNC(=O)[C@H](CCC(=O)O)NC(=O)C(C)(C)NC(=O)[C@@H](N)Cc2c[nH]cn2)[C@@H](C)O)[C@@H](C)O)C(C)C)[C@@H](C)O)CSC2CC(=O)N(CCC(=O)NCCCCC(C(=O)NCCCCCCNC(=O)COCCOCCNC(=O)CCCCCCCCCCCCCCCCC(=O)O)NC(=O)CCN3C(=O)CC(SC[C@@H](C(=O)NCC(=O)N[C@@H](CCCCN)C(=O)N4CCC[C@H]4C(=O)N[C@@H](CO)C(=O)N[C@@H](CO)C(=O)NCC(=O)N[C@@H](C)C(=O)N4CCC[C@H]4C(=O)N4CCC[C@H]4C(=O)N4CCC[C@H]4C(=O)N[C@@H](CO)C(N)=O)NC1=O)C3=O)C2=O (stereo not given in full) (HELM PEPTIDE1{H.[Aib].E.G.T.Y.T.N.D.V.T.E.Y.L.E.E.E.A.A.K.C.F.I.E.W.L.I.C.G.K.P.S.S.G.A.P.P.P.S.[am]}|CHEM1{[O=C(O)CCCCCCCCCCCCCCCCC(=O)NCCOCCOCC(=O)NCCCCCCNC(=O)C(CCCCNC(=O)CCN1C(=O)CC([*:1])C1=O)NC(=O)CCN1C(=O)CC([*:2])C1=O]}$PEPTIDE1,CHEM1,21:R3-1:R1|PEPTIDE1,CHEM1,28:R3-1:R2$$$V2.0)	0.15	2.3	15.3	–
CC[C@H](C)[C@H](NC(=O)[C@H](Cc1ccccc1)NC(=O)[C@H](CCC(=O)O)NC(=O)[C@H](CCCCN)NC(=O)[C@H](C)NC(=O)[C@H](C)NC(=O)[C@H](CCC(N)=O)NC(=O)CNC(=O)[C@H](CCC(=O)O)NC(=O)[C@H](CC(C)C)NC(=O)[C@H](Cc1ccc(O)cc1)NC(=O)[C@H](CO)NC(=O)[C@H](CO)NC(=O)[C@@H](NC(=O)[C@H](CC(=O)O)NC(=O)[C@H](CO)NC(=O)[C@@H](NC(=O)[C@H](Cc1ccccc1)NC(=O)[C@@H](NC(=O)CNC(=O)[C@H](CCC(=O)O)NC(=O)[C@H](C)NC(=O)[C@@H](N)Cc1cnc[nH]1)[C@@H](C)O)[C@@H](C)O)C(C)C)C(=O)N[C@@H](C)C(=O)N[C@@H](Cc1c[nH]c2ccccc12)C(=O)N[C@@H](CC(C)C)C(=O)N[C@H](C(=O)N[C@@H](CCCCN)C(=O)NCC(=O)N[C@@H](CCCNC(=N)N)C(=O)O)C(C)C	–	–	–	Active
